PubChem BioAssay AID248 (DTP/NCI, 2004)
Where “and” joins values, the source holds several entries; their conditions need not be identical. Identical values can stand only once. Toxic doses and inconclusive results are not listed. No stated cut-off is given here; in the data, active means T/C of 150% or more; inactive means T/C below 125%.

Test system: L1210 leukemia ip in BDF1 mice, survival T/C
Assay: NCI In Vivo Anticancer Drug Screen. Data for tumor model L1210 Leukemia (intraperitoneal) in B6D2F1 (BDF1) mice
Conditions: endpoint: mean survival time, higher = longer survival
Summary of the method: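 Ratio derived from survival: compound-dosed mice over vehicle-dosed mice, all bearing a transplantable tumor.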

[1] = dose: 100.0 mg/kg/injection, schedule: Q04DX003 (ip), vehicle: Klucel (hydroxypropylcellulose) (HPC)
[2] = dose: 200.0 mg/kg/injection, schedule: Q04DX003 (ip), vehicle: Klucel (hydroxypropylcellulose) (HPC)
[3] = dose: 400.0 mg/kg/injection, schedule: Q04DX003 (ip), vehicle: Klucel (hydroxypropylcellulose) (HPC)
[4] = dose: 100.0 mg/kg/injection, schedule: Q01DX001 (ip), vehicle: saline
[5] = dose: 200.0 mg/kg/injection, schedule: Q01DX001 (ip), vehicle: saline
[6] = dose: 400.0 mg/kg/injection, schedule: Q01DX001 (ip), vehicle: saline
[7] = dose: 100.0 mg/kg/injection, schedule: Q01DX009 (ip), vehicle: saline with Tween-80
[8] = dose: 200.0 mg/kg/injection, schedule: Q01DX009 (ip), vehicle: saline with Tween-80
[9] = dose: 400.0 mg/kg/injection, schedule: Q01DX009 (ip), vehicle: saline with Tween-80

Measured: T/C

Cn1cc([N+](=O)[O-])ccc1=O
inactive: [1] 110 % of control | [2] 116 % of control | [3] 121 % of control

O=C(/C=C/c1ccccc1)N/N=C/c1ccccc1Cl
inactive: dose: 50.0 mg/kg/injection, schedule: Q04DX002 (ip), vehicle: Klucel (hydroxypropylcellulose) (HPC) 108 % of control | dose: 100.0 mg/kg/injection, schedule: Q04DX002 (ip), vehicle: Klucel (hydroxypropylcellulose) (HPC) 100 % of control and 116 % of control | dose: 200.0 mg/kg/injection, schedule: Q04DX002 (ip), vehicle: Klucel (hydroxypropylcellulose) (HPC) 111 % of control | dose: 400.0 mg/kg/injection, schedule: Q04DX002 (ip), vehicle: Klucel (hydroxypropylcellulose) (HPC) 101 % of control and 110 % of control

CC(C)=NOC(=O)N(C)C
inactive: [4] 93 % of control | [5] 96 % of control | [6] 91 % of control

CC1(C)CC(OP(OC2CC(C)(C)N(O)C(C)(C)C2)OC2CC(C)(C)N(O)C(C)(C)C2)CC(C)(C)N1O
inactive: dose: 100.0 mg/kg/injection, schedule: Q01DX001 (ip), vehicle: water 100 % of control | dose: 200.0 mg/kg/injection, schedule: Q01DX001 (ip), vehicle: water 94 % of control | dose: 400.0 mg/kg/injection, schedule: Q01DX001 (ip), vehicle: water 94 % of control

Cc1cc(C)c(NC(=S)NC(=O)c2ccco2)c(C)c1
inactive: [7] 97 % of control | [1] 98 % of control | [8] 93 % of control | [2] 96 % of control | [9] 95 % of control | [3] 102 % of control

CCCCOC(=O)C(C)OC(=O)CCC (centres undefined)
inactive: dose: 100.0 mg/kg/injection, schedule: Q01DX009 (ip), vehicle: Klucel (hydroxypropylcellulose) (HPC) 102 % of control | [1] 99 % of control | dose: 200.0 mg/kg/injection, schedule: Q01DX009 (ip), vehicle: Klucel (hydroxypropylcellulose) (HPC) 90 % of control | [2] 107 % of control | dose: 400.0 mg/kg/injection, schedule: Q01DX009 (ip), vehicle: Klucel (hydroxypropylcellulose) (HPC) 102 % of control | [3] 102 % of control

C=CCC1(CCCCC)C(=O)NC(=S)NC1=O
inactive: dose: 75.0 mg/kg/injection, schedule: Q01DX001 (ip), vehicle: saline 100 % of control | dose: 150.0 mg/kg/injection, schedule: Q01DX001 (ip), vehicle: saline 100 % of control

COC1CCCC(/C(=C\Br)c2ccccc2)C1 (centres undefined)
inactive: [4] 106 % of control | [5] 106 % of control | [6] 115 % of control

CCCC(C)(C)C(=O)Nc1cccc(OC(=O)NC(C)C)c1
inactive: [7] 96 % of control | [8] 86 % of control | [9] 91 % of control

O=[N+]([O-])/C=C\c1cc(Cl)c(/C=C/[N+](=O)[O-])c(Cl)c1Cl
inactive: dose: 2.5 mg/kg/injection, schedule: Q01DX009 (ip), vehicle: saline 88 % of control | dose: 10.0 mg/kg/injection, schedule: Q01DX001 (ip), vehicle: acetone 89 % of control | dose: 10.0 mg/kg/injection, schedule: Q04DX003 (ip), vehicle: acetone 91 % of control | dose: 20.0 mg/kg/injection, schedule: Q01DX001 (ip), vehicle: acetone 94 % of control | dose: 20.0 mg/kg/injection, schedule: Q04DX003 (ip), vehicle: acetone 101 % of control

CC(C)=C(Br)CC[C@@H](C)[C@H]1CC[C@@]2(C)C3=C(CC[C@]12C)[C@@]1(C)CC[C@H](O)C(C)(C)[C@@H]1CC3
inactive: dose: 62.0 mg/kg/injection, schedule: Q01DX Z (sc), vehicle: steriod suspending solution 102 % of control | dose: 125.0 mg/kg/injection, schedule: Q01DX Z (sc), vehicle: steriod suspending solution 95 % of control | dose: 250.0 mg/kg/injection, schedule: Q01DX Z (sc), vehicle: steriod suspending solution 95 % of control | dose: 500.0 mg/kg/injection, schedule: Q01DX Z (sc), vehicle: steriod suspending solution 95 % of control

COc1ccc(/C=C/C=C/C(=O)O)cc1OC
inactive: dose: 50.0 mg/kg/injection, schedule: Q01DX001 (ip), vehicle: other 102 % of control | dose: 100.0 mg/kg/injection, schedule: Q01DX001 (ip), vehicle: other 98 % of control | dose: 200.0 mg/kg/injection, schedule: Q01DX001 (ip), vehicle: other 107 % of control | dose: 400.0 mg/kg/injection, schedule: Q01DX001 (ip), vehicle: other 91 % of control

O=c1[nH]c(=O)n(Cc2ccccc2)cc1Cc1ccccc1
inactive: dose: 100.0 mg/kg/injection, schedule: Q04DX003 (ip), vehicle: saline with Tween-80 106 % of control | dose: 200.0 mg/kg/injection, schedule: Q04DX003 (ip), vehicle: saline with Tween-80 98 % of control | dose: 400.0 mg/kg/injection, schedule: Q04DX003 (ip), vehicle: saline with Tween-80 101 % of control
